Earlier results as cited in US20120309847A1, “DOSING REGIMENS AND METHODS FOR TREATING OR PREVENTING PROMYELOCYTIC LEUKEMIA” (NBI Pharmaceuticals, Inc., priority 2011, published 2012).

Legend:
APL [1] = conditions: ATRA combined with anthracycline based chemotherapy; cited from earlier work
APL [2] = conditions: enocitabine 100-200 mg/m^2 continuous infusion 7 days combined with daunorubicin i.v. 3 days; cited from earlier work

| SMILES | clinical remission, share of patients (APL [1]) | long-term disease-free survival (APL [2]) |
| --- | --- | --- |
| CC1=C(/C=C/C(C)=C/C=C/C(C)=C/C(=O)O)C(C)(C)CCC1 [ATRA, all-trans retinoic acid] | approximately 90% | – |
| CCCCCCCCCCCCCCCCCCCCCC(=O)Nc1ccn([C@@H]2O[C@H](CO)[C@@H](O)[C@@H]2O)c(=O)n1 [enocitabine] | – | ~30% |
